What all share (assay type): functional
Test [1] deals with Mus musculus. Briefly: Immuno-regulatory activity in cyclophosphamide-induced immunocompromised Kunming mouse model assessed as concanavalin A-induced lymphocyte proliferation stimulate index in spleen at 50 mg/kg administered once daily via gavage for 30 consecutive days measured after 12 hrs of fasting following last dose on day 30 by MTT assay (reference value: 0.054 +/- 0.001). For orientation: Tetrazolium dyes change colour on reduction, which living cells bring about.

In test [2] the test system is Mus musculus. Kind of test: Immuno-regulatory activity in cyclophosphamide-induced immunocompromised Kunming mouse model assessed as MDA content in serum at 50 mg/kg administered once daily via gavage for 30 consecutive days measured after 12 hrs of fasting following last dose on day 30 (reference value: 2.77 +/- 0.05).
The subject of test [3] is Mus musculus. Briefly: Immuno-regulatory activity in cyclophosphamide-induced immunocompromised Kunming mouse model assessed as SOD activity in serum at 200 mg/kg administered once daily via gavage for 30 consecutive days measured after 12 hrs of fasting following last dose on day 30 (reference value: 91.98 +/- 3.32).
For test [4], the system named is Mus musculus. Kind of test: Immuno-regulatory activity in cyclophosphamide-induced immunocompromised Kunming mouse model assessed as SOD activity in spleen at 200 mg/kg administered once daily via gavage for 30 consecutive days measured after 12 hrs of fasting following last dose on day 30 (reference value: 94.84 +/- 3.28).
Test [5] concerns Mus musculus. Kind of test: Immuno-regulatory activity in cyclophosphamide-induced immunocompromised Kunming mouse model assessed as enhancement of B cell-mediated humoral immunity by measuring SRBC half hemolysis value at 200 mg/kg administered once daily via gavage for 30 consecutive days and SRBC immunization on day 26 measured after 12 hrs of fasting following last dose on day 30 (reference value: 173.42 +/- 7.75).

For test [6], the system named is Mus musculus. Kind of test: Immuno-regulatory activity in cyclophosphamide-induced immunocompromised Kunming mouse model assessed as enhancement of B cell-mediated humoral immunity by measuring antibody producing cells in spleen against SRBC at 200 mg/kg administered once daily via gavage for 30 consecutive days measured after 12 hrs of fasting following last dose on day 30 (reference value: 0.48 +/- 0.05).

Test [7] has as its system Mus musculus. Briefly: Immuno-regulatory activity in cyclophosphamide-induced immunocompromised Kunming mouse model assessed as MDA content in kidney at 200 mg/kg administered once daily via gavage for 30 consecutive days measured after 12 hrs of fasting following last dose on day 30 (reference value: 2.35 +/- 0.06).
The test system of test [8] is Mus musculus. Kind of test: Immuno-regulatory activity in cyclophosphamide-induced immunocompromised Kunming mouse model assessed as GSH-PX activity in serum at 200 mg/kg administered once daily via gavage for 30 consecutive days measured after 12 hrs of fasting following last dose on day 30 (reference value: 5.66 +/- 0.17).
For test [9], the system named is Mus musculus. Briefly: Immuno-regulatory activity in cyclophosphamide-induced immunocompromised Kunming mouse model assessed as enhancement of T cell-mediated delayed-type hypersensitivity by measuring increase in paw weight at 200 mg/kg administered once daily via gavage for 30 consecutive days and SRBC immunization on day 26 measured after 12 hrs of fasting following last dose on day 30 relative to control.

In test [10] the test system is Mus musculus. Briefly: Immuno-regulatory activity in cyclophosphamide-induced immunocompromised Kunming mouse model assessed as GSH-PX activity in kidney at 50 mg/kg administered once daily via gavage for 30 consecutive days measured after 12 hrs of fasting following last dose on day 30 (reference value: 10.12 +/- 0.25).
Test [11] relates to Mus musculus. Briefly: Immuno-regulatory activity in cyclophosphamide-induced immunocompromised Kunming mouse model assessed as enhancement of B cell-mediated humoral immunity by measuring antibody producing cells in spleen against SRBC at 50 mg/kg administered once daily via gavage for 30 consecutive days measured after 12 hrs of fasting following last dose on day 30 (reference value: 0.48 +/- 0.05).

Test [12] deals with Mus musculus. Briefly: Immuno-regulatory activity in cyclophosphamide-induced immunocompromised Kunming mouse model assessed as SOD activity in serum at 50 mg/kg administered once daily via gavage for 30 consecutive days measured after 12 hrs of fasting following last dose on day 30 (reference value: 91.98 +/- 3.32).
The test system of test [13] is Mus musculus. Briefly: Immuno-regulatory activity in cyclophosphamide-induced immunocompromised Kunming mouse model assessed as body weight at 50 mg/kg administered once daily via gavage for 30 consecutive days measured after 12 hrs of fasting following last dose (reference value: 30.3 +/- […]).
Test [14] concerns Mus musculus. Briefly: Immuno-regulatory activity in cyclophosphamide-induced immunocompromised Kunming mouse model assessed as MDA content in kidney at 50 mg/kg administered once daily via gavage for 30 consecutive days measured after 12 hrs of fasting following last dose on day 30 (reference value: 2.35 +/- 0.06).
Test [15] concerns Mus musculus. Kind of test: Immuno-regulatory activity in cyclophosphamide-induced immunocompromised Kunming mouse model assessed as MDA content in liver at 200 mg/kg administered once daily via gavage for 30 consecutive days measured after 12 hrs of fasting following last dose on day 30 (reference value: 3.34 +/- 0.18).
Test [16] has as its system Mus musculus. Briefly: Immuno-regulatory activity in cyclophosphamide-induced immunocompromised Kunming mouse model assessed as recovery from spleen damage by measuring spleen weight index at 200 mg/kg administered once daily via gavage for 30 consecutive days measured after 12 hrs of fasting following last dose (reference value: 4.59 +/- 0.28).
For test [17], the system named is Mus musculus. Briefly: Immuno-regulatory activity in cyclophosphamide-induced immunocompromised Kunming mouse model assessed as GSH-PX activity in liver at 200 mg/kg administered once daily via gavage for 30 consecutive days measured after 12 hrs of fasting following last dose on day 30 (reference value: 9.52 +/- 0.26).
Test [18] has as its system Mus musculus. Briefly: Immuno-regulatory activity in cyclophosphamide-induced immunocompromised Kunming mouse model assessed as enhancement of B cell-mediated humoral immunity by measuring SRBC half hemolysis value at 50 mg/kg administered once daily via gavage for 30 consecutive days and SRBC immunization on day 26 measured after 12 hrs of fasting following last dose on day 30 (reference value: 173.42 +/- 7.75).

For test [19], the system named is Mus musculus. Kind of test: Immuno-regulatory activity in cyclophosphamide-induced immunocompromised Kunming mouse model assessed as recovery from spleen damage by measuring spleen weight index at 50 mg/kg administered once daily via gavage for 30 consecutive days measured after 12 hrs of fasting following last dose (reference value: 4.59 +/- 0.28).
The test system of test [20] is Mus musculus. Briefly: Immuno-regulatory activity in cyclophosphamide-induced immunocompromised Kunming mouse model assessed as concanavalin A-induced lymphocyte proliferation stimulate index in spleen at 200 mg/kg administered once daily via gavage for 30 consecutive days measured after 12 hrs of fasting following last dose on day 30 by MTT assay (reference value: 0.054 +/- 0.001).

Test [21] relates to Mus musculus. Kind of test: Immuno-regulatory activity in cyclophosphamide-induced immunocompromised Kunming mouse model assessed as GSH-PX activity in kidney at 200 mg/kg administered once daily via gavage for 30 consecutive days measured after 12 hrs of fasting following last dose on day 30 (reference value: 10.12 +/- 0.25).
Test [22] deals with Mus musculus. Kind of test: Immuno-regulatory activity in cyclophosphamide-induced immunocompromised Kunming mouse model assessed as recovery from thymus damage by measuring thymus weight index at 50 mg/kg administered once daily via gavage for 30 consecutive days measured after 12 hrs of fasting following last dose (reference value: 0.98 +/- 0.14).

Molecules are shown by their SMILES.

With `O=C(O)C1c2cc(O)c(O)c3sc4c5c(O)[nH]c6cc(O)c(O)c(c65)c5c6ccc7ccc1c(c76)n(c23)c45` (configuration not stated), the Activity_index with Mus musculus [1] was 0.061; with Mus musculus [16], 5.13 mg/g; in the test on Mus musculus [19], 4.61 mg/g; with Mus musculus [20] it was 0.072; with Mus musculus [22] it was 1.01 mg/g. Also, the Activity in the test on Mus musculus [2] worked out at 2.66; with Mus musculus [3], 104.09; in the test on Mus musculus [4], 110.54; with Mus musculus [5] it was 182.25; with Mus musculus [6], 0.62; with Mus musculus [7], 1.83. For the same compound, the Activity is 7.27 with Mus musculus [8]; 79.3% in the test with Mus musculus [9]; 11.57 in the test on Mus musculus [10]; 0.52 in the test with Mus musculus [11]; 94.15 with Mus musculus [12]; 32.9 g in the test on Mus musculus [13]. Besides, the Activity with Mus musculus [14] came to 2.07; with Mus musculus [15], 2.25; with Mus musculus [17] it was 16.1; in the test on Mus musculus [18], 175.62; in the test on Mus musculus [21], 16.79.
